Consider one compound from paper PMC11859031, “Assessment of the In Vitro Biological Activities of Schiff Base-Synthesized Copper Oxide Nanoparticles as an Anti-Diabetic, Anti-Alzheimer, and Anti-Cancer Agent” (Pharmaceutics, 2025).

In assay [1] the target is T1, 5-LOX enzyme (human recombinant) (Homo sapiens, UniProt P09917).
T1 construct: purchased Sigma-Aldrich 437996
T1 sequence (P09917 1-674): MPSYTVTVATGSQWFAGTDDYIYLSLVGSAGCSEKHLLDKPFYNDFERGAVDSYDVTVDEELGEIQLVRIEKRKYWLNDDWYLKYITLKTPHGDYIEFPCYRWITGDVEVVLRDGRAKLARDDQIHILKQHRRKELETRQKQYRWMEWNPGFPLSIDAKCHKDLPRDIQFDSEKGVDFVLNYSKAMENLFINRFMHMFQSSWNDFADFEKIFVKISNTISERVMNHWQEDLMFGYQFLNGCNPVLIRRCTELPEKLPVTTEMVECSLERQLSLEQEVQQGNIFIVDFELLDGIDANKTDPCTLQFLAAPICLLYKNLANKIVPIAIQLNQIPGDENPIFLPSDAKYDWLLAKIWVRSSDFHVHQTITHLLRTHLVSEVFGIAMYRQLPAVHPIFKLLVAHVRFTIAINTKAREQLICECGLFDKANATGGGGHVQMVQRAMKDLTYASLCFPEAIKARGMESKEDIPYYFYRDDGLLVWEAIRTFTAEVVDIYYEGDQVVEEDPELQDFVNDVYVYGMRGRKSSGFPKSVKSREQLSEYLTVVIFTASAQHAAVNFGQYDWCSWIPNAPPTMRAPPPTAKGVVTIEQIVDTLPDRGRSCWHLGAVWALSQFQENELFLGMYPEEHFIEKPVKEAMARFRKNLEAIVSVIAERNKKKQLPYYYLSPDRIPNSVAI
In words: 5-Lipoxygenase inhibition assay. To be noted: mean ± SE, n = 3. The format is biochemical.

For assay [2], the target named is T2, COX-2 (Homo sapiens, UniProt P35354).
T2 construct: purchased Cayman 560131
T2 sequence (P35354 18-604): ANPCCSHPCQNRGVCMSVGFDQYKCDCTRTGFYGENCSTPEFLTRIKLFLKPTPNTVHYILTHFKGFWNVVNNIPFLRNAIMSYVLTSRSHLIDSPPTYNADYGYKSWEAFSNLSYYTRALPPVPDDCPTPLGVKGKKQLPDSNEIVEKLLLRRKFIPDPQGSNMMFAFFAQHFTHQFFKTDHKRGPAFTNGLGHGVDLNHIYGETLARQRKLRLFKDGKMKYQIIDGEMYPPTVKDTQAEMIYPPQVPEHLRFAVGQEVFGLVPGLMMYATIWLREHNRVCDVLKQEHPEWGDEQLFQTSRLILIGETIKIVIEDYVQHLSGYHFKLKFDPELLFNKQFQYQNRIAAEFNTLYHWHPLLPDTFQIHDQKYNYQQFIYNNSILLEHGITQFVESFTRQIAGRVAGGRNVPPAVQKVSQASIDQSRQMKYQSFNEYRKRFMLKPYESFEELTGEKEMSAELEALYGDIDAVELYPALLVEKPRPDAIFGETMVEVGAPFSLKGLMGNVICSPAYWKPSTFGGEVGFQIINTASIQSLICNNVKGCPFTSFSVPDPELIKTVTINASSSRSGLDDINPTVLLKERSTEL
The assay can be described thus: COX-2 inhibition assay (Cayman kit). The format is biochemical. To be noted: mean ± SE, n = 3.

Assay [3] is described as follows: ABTS radical scavenging. Conditions: mean ± SE, n = 3. As to the method: The procedure for the 2,2'-azinobis-(3-ethylbenzothiazoline-6-sulfonic acid) (ABTS) […]
solution (7 mM) and potassium persulfate solution (2.4 mM). The working solution was prepared by mixing the two stock solutions in equal quantities and allowing them to react at room temperature in a dark place for 14 hours. The solution was then diluted by mixing 1 mL of ABTS solution with 60 mL of methanol to obtain an absorbance of 0.706 ± 0.01 units at 734 nm using a spectrophotometer. Fresh ABTS solution was prepared for each assay. The tested samples (at each concentration) were allowed to react with 1 mL of the ABTS solution, and the absorbance was taken at 734 nm after 7 minutes using a spectrophotometer. […]

The target of assay [4] is T3, COX-1 (Ovis aries, UniProt P05979).
T3 construct: purchased Cayman 560131
T3 sequence (P05979 25-600): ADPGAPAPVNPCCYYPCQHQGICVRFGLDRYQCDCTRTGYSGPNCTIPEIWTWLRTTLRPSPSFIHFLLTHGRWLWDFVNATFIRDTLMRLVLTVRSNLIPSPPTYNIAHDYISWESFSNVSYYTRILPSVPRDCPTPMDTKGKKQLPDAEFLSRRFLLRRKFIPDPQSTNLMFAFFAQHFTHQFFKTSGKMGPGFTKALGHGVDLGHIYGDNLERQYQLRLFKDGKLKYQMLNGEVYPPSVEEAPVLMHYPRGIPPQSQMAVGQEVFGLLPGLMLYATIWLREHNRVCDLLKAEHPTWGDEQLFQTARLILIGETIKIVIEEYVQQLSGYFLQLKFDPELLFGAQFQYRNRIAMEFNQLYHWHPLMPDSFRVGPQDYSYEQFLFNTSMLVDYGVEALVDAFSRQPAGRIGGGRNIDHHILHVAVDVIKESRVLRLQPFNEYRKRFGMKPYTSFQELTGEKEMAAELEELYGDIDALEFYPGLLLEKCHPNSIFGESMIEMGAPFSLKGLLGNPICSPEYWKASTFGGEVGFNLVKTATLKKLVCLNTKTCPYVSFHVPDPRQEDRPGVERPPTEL
In words: COX-1 inhibition assay (Cayman kit). The format is biochemical, ovine. To be noted: mean ± SE, n = 3.

Assay [5] relates to Bcl-2 in Caco-2 cells. In words: Bcl-2 ELISA in treated Caco-2 cells. To be noted: Caco-2 cells treated at the IC50 value, mean ± SE, n = 3. The format is cell-based, human. As to the method: (§1) Following the treatment of HepG-2, Caco-2, A549, and BJ-1 cells with the SB-CuO-NPs at their respective IC50 values, as illustrated in Figure 9 and detailed in Table 5, an assessment of the activities of the caspase-3 and Bcl-2 enzymes was conducted in the treated cells. […] This mechanism ultimately triggers apoptosis. Additionally, the increased activity of caspase-3 results in a decrease in the expression of cyclin D1 and CDK-2 mRNA, thereby promoting the arrest of the G1 phase of the cell cycle. Othman et al. further noted that the biosynthesized M-NPs facilitate apoptosis by inhibiting the expression of the PI3K/AKT and Ras/Raf/ERK protein signaling pathways.
(§2) Invitrogen Corporation, following the manufacturer's instructions.

For assay [6], the system named is caspase-3 in Caco-2 cells. The assay can be described thus: Caspase-3 ELISA in treated Caco-2 cells. Conditions: Caco-2 cells treated at the IC50 value, mean ± SE, n = 3. The format is cell-based, human. As to the method:
as §1, §2

Turning to `Cc1nn(-c2ccccc2)c(Cl)c1C=NN=C1C(=O)Nc2ccccc21` [SB], the inhibition at 100 µg/mL amounted to 26.71 ± 0.18% in assay [1] (at 100 µg/mL, read-out: 5-LOX Inhib. (%)); 33.86 ± 0.18% in assay [2] (at 100 µg/mL, read-out: COX-2 Inhib. (%)); 31.61 ± 0.18% in assay [4] (at 100 µg/mL, read-out: COX-1 Inhib. (%)). Further, the values for the IC50 in assay [1], in assay [2] and in assay [4] were 36.6 µM, 19.7 µM and 27.1 µM, respectively. The “Scavenging activity ABTS Inhib. (%)” value in assay [3] (at 100 µg/mL) is listed as 48.29 ± 0.18%. The “Scavenging activity ABTS IC50” value in assay [3] is listed as 5.40 ± 0.06 µg/mL. Also, in assay [5], the Bcl-2 is 3.77 ± 0.05 ng/mL. Also, the Caspase-3 in assay [6] was found to be 144.28 ± 0.22 pg/mL.
